Test results: patent publication US6156700A, “3-(1,2-Benzisothiazol- and isoxazol-5-yl)-2,4(1H,3H)-pyrimidinedione or thione and 3-(1,2-benzisothiazol- and isoxazol-5-yl)-4(3H)-pyrimidinone or thione herbicidal agents” (American Cyanmid Company, priority 1998, dated 2000)

Columns and labels:
CYPIR Rice Flatsedge [1] = test: Postemergence weed control, flooded paddy (Table IV); format: in vivo, Cyperus iria; set-up: scale not given here
Summary of the method: (§1)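 Weeds 3 to 5 cm tall and rice seedlings at the 1.5 to 2.5 leaf stage were flooded, water held 1.5 to 3 cm above soil. Compounds in 50/50 v/v aqueous/acetone went into the flood water at about 0.0313 to 0.500 kg/ha. Injury was rated visually three to four weeks later.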

[2] = tested on: SAGPY Arrowhead (Pygmaea); test: as above; format: in vivo, Sagittaria pygmaea; set-up: scale not given here
Summary of the method: as §1

[3] = tested on: Ragweed, Common, Ambrosia artemisifolia; test: Preemergence herbicidal evaluation, AMBEL; format: in vivo, L.; conditions: 0.2500 kg/ha
Summary of the method: (§2)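 Sow seeds in soil-filled cups; spray aqueous acetone compound solution at about 0.0156–0.500 kg/ha; keep on greenhouse benches with routine watering; after four to five weeks, rate visual injury 0–9 compared with control plants.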

ORYSAT Rice, Tebonnet [4] = test: Tolerance of transplanted rice to post-transplant application (Table III); format: in vivo, Oryza sativa; set-up: scale not given here; conditions: crop tolerance
Method: The tolerance of transplanted rice to post-transplanted herbicide applications is determined as follows: two ten-day-old rice seedlings (cv. Tebonnet) are transplanted into silt loam soil in 32 oz. plastic containers with a diameter of 10.5 cm and no drainage holes. After transplanting, the containers are flooded and the water level is maintained at 1.5 to 3 cm above the soil surface. Three days after transplanting, the flooded soil surface of the containers is treated with the selected aqueous/acetone 50/50 v/v mixture containing the test compounds to provide the equivalent of about 0.0313 to 0.500 kg/ha of active ingredient. The treated containers are placed on greenhouse benches, watered such that the water level is maintained as stated above, and cared for in accordance with conventional greenhouse procedures. Three to four weeks after treatment, the test is terminated and each container is examined and herbicidal effect rated according to the rating system provided in Example 185. The compounds evaluated are reported by compound number given in Example 185.

[5] = tested on: Wheat, Winter, cv Riband, Triticum aestivum; test: Postemergence herbicidal evaluation, TRZAWR; format: in vivo; conditions: 0.2500 kg/ha
Summary of the method: (§3)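 Visual 0–9 rating vs untreated control (stand, vigor, malformation, size, chlorosis, overall appearance), scored 4–5 wk post-spray. Two-week-old seedlings; compound in 50/50 acetone/water + 0.5% TWEEN 20, ~0.0157–0.500 kg/ha, 40 psi nozzle.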

CYPSE Flatsedge [6] = test: Preemergence weed control, flooded paddy (Table III); format: in vivo, Cyperus serotinus; set-up: scale not given here
Method: (§4) Preemergence herbicidal activity under flooded paddy conditions is determined as follows: plant seeds or propagating organs are planted in the top 0.5 cm of silt loam soil in 32 oz. plastic containers with a diameter of 10.5 cm and no drainage holes. Water is added to these containers and maintained at 1.5 to 3 cm above the soil surface for the duration of the experiment. The test compounds are applied as aqueous/acetone mixtures 50/50 v/v pipetted directly into the flood water to give the equivalent of about 0.0313 to 0.500 kg/ha of active ingredient. The treated containers are placed on greenhouse benches and cared for in accordance with conventional greenhouse procedures. Three to four weeks after treatment, the test is terminated and each container is examined and herbicidal effect rated according to the rating system provided in Example 185. The compounds evaluated are reported by compound number given in Example 185.

Galium, Galium aparine = test: Postemergence herbicidal evaluation, GALAP; format: in vivo; conditions: 0.2500 kg/ha
Summary of the method: as §3

[7] = tested on: Wheat, Winter, cv Riband, Triticum aestivum; test: Preemergence herbicidal evaluation, TRZAWR; format: in vivo; conditions: 0.2500 kg/ha
Summary of the method: as §2

CYPSE Flatsedge [8] = test: Postemergence weed control, flooded paddy (Table IV); format: in vivo, Cyperus serotinus; set-up: scale not given here
Summary of the method: as §1

ORYSAT Rice, Tebonnet [9] = test: Rice tolerance, flooded paddy (Table IV); format: in vivo, Oryza sativa; set-up: scale not given here; conditions: crop tolerance
Summary of the method: as §1

MOOVA Monochoria = test: Postemergence weed control, flooded paddy (Table IV); format: in vivo, Monochoria vaginalis; set-up: scale not given here
Summary of the method: as §1

[10] = tested on: ECHORC Watergrass (Calif.); test: as above; format: in vivo, Echinochloa oryzoides; set-up: scale not given here
Summary of the method: as §1

[11] = tested on: Rice, Tebonnet, Oryza sativa; test: Postemergence herbicidal evaluation, ORYSAT; format: in vivo, (L.) Tebonnet; conditions: 0.2500 kg/ha
Summary of the method: as §3

CYPIR Rice Flatsedge [12] = test: Preemergence weed control, flooded paddy (Table III); format: in vivo, Cyperus iria; set-up: scale not given here
Method: as §4

[13] = tested on: Barnyardgrass, Echinochloa crus-galli; test: Postemergence herbicidal evaluation, ECHCG; format: in vivo, (L.) Beau; conditions: 0.2500 kg/ha
Summary of the method: as §3

| SMILES | herbicidal effect rating (CYPIR Rice Flatsedge [1]; 0.1250 kg/ha) | herbicidal effect rating (CYPIR Rice Flatsedge [1]; 0.2500 kg/ha) | herbicidal effect rating (CYPIR Rice Flatsedge [1]; 0.5000 kg/ha) | herbicidal effect rating ([2]; 0.1250 kg/ha) | herbicidal effect rating ([2]; 0.2500 kg/ha) | herbicidal effect rating ([2]; 0.5000 kg/ha) | herbicide rating (0-9) [3] | herbicidal effect rating (ORYSAT Rice, Tebonnet [4]; 0.0313 kg/ha) | herbicidal effect rating (ORYSAT Rice, Tebonnet [4]; 0.0625 kg/ha) | herbicidal effect rating (ORYSAT Rice, Tebonnet [4]; 0.1250 kg/ha) | herbicidal effect rating (ORYSAT Rice, Tebonnet [4]; 0.2500 kg/ha) | herbicidal effect rating (ORYSAT Rice, Tebonnet [4]; 0.5000 kg/ha) | herbicide rating (0-9) [5] | herbicidal effect rating (CYPSE Flatsedge [6]; 0.0625 kg/ha) | herbicidal effect rating (CYPSE Flatsedge [6]; 0.1250 kg/ha) | herbicidal effect rating (CYPSE Flatsedge [6]; 0.2500 kg/ha) | herbicidal effect rating (CYPSE Flatsedge [6]; 0.5000 kg/ha) | herbicide rating (0-9) (Galium, Galium aparine) | herbicide rating (0-9) [7] | herbicidal effect rating (CYPSE Flatsedge [8]; 0.1250 kg/ha) | further results |
| --- | --- | --- | --- | --- | --- | --- | --- | --- | --- | --- | --- | --- | --- | --- | --- | --- | --- | --- | --- | --- | --- |
| Cn1c(C(F)(F)F)cc(=O)n(-c2ccc3snc(-c4ccccc4)c3c2)c1=O [Compound 4, 1-Methyl-3-(3-phenyl-1,2-benzisothiazol-5-yl)-6-(trifluoromethyl)-2,4(1H,3H)-pyrimidinedione] | 9.0 | 9.0 | 9.0 | 6.0 | 9.0 | 9.0 | 9.0 | 4.0 | 7.0 | 7.0 | 8.0 | 8.0 | 3.0 | 2.0 | 9.0 | 9.0 | 9.0 | 9.0 | 7.0 | 7.0 | herbicidal effect rating (CYPSE Flatsedge [8]; 0.2500 kg/ha): 7.0; herbicidal effect rating (CYPSE Flatsedge [8]; 0.5000 kg/ha): 9.0; herbicidal effect rating (ORYSAT Rice, Tebonnet [9]; 0.1250 kg/ha): 7.0; herbicidal effect rating (ORYSAT Rice, Tebonnet [9]; 0.2500 kg/ha): 8.0; herbicidal effect rating (ORYSAT Rice, Tebonnet [9]; 0.5000 kg/ha): 8.0; herbicidal effect rating (MOOVA Monochoria; 0.1250 kg/ha): 9.0; herbicidal effect rating (MOOVA Monochoria; 0.2500 kg/ha): 9.0; herbicidal effect rating (MOOVA Monochoria; 0.5000 kg/ha): 9.0; herbicidal effect rating ([10]; 0.1250 kg/ha): 9.0; herbicidal effect rating ([10]; 0.2500 kg/ha): 9.0; herbicidal effect rating ([10]; 0.5000 kg/ha): 9.0; herbicide rating (0-9) [11]: 3.0; herbicidal effect rating (CYPIR Rice Flatsedge [12]; 0.0313 kg/ha): 9.0; herbicidal effect rating (CYPIR Rice Flatsedge [12]; 0.0625 kg/ha): 9.0; herbicidal effect rating (CYPIR Rice Flatsedge [12]; 0.1250 kg/ha): 9.0; herbicidal effect rating (CYPIR Rice Flatsedge [12]; 0.2500 kg/ha): 9.0; herbicidal effect rating (CYPIR Rice Flatsedge [12]; 0.5000 kg/ha): 9.0; herbicide rating (0-9) [13]: 8.0 |
| COC(=O)COc1cc(C)ccc1-c1nsc2ccc(-n3c(=O)cc(C(F)(F)F)n(C)c3=O)cc12 [Compound 8, Methyl {{6-{5-[3,6-dihydro-3-methyl-4-(trifluoromethyl)-2,6-dioxo-1(2H)-pyrimidinyl]-1,2-benzisothiazol-3-yl}-m-tolyl}oxy}acetate] | 9.0 | 9.0 | 9.0 | 4.0 | 9.0 | 9.0 | 9.0 | 7.0 | 7.0 | 9.0 | 9.0 | 9.0 | 9.0 | 9.0 | 9.0 | 9.0 | 9.0 | 9.0 | 9.0 | 7.0 | herbicidal effect rating (CYPSE Flatsedge [6]; 0.0313 kg/ha): 4.0; herbicidal effect rating (CYPSE Flatsedge [8]; 0.2500 kg/ha): 7.0; herbicidal effect rating (CYPSE Flatsedge [8]; 0.5000 kg/ha): 9.0; herbicidal effect rating (ORYSAT Rice, Tebonnet [9]; 0.1250 kg/ha): 6.0; herbicidal effect rating (ORYSAT Rice, Tebonnet [9]; 0.2500 kg/ha): 8.0; herbicidal effect rating (ORYSAT Rice, Tebonnet [9]; 0.5000 kg/ha): 9.0; herbicidal effect rating (MOOVA Monochoria; 0.1250 kg/ha): 9.0; herbicidal effect rating (MOOVA Monochoria; 0.2500 kg/ha): 9.0; herbicidal effect rating (MOOVA Monochoria; 0.5000 kg/ha): 9.0; herbicidal effect rating ([10]; 0.1250 kg/ha): 9.0; herbicidal effect rating ([10]; 0.2500 kg/ha): 9.0; herbicidal effect rating ([10]; 0.5000 kg/ha): 9.0; herbicide rating (0-9) [11]: 8.5; herbicidal effect rating (CYPIR Rice Flatsedge [12]; 0.0313 kg/ha): 9.0; herbicidal effect rating (CYPIR Rice Flatsedge [12]; 0.0625 kg/ha): 9.0; herbicidal effect rating (CYPIR Rice Flatsedge [12]; 0.1250 kg/ha): 9.0; herbicidal effect rating (CYPIR Rice Flatsedge [12]; 0.2500 kg/ha): 9.0; herbicidal effect rating (CYPIR Rice Flatsedge [12]; 0.5000 kg/ha): 9.0; herbicide rating (0-9) [13]: 9.0 |
